For data set [1] the following is noted: cited from earlier work.
A short description of data set [2]: Permeability and efflux ratio of saquinavir across Caco-2 cell monolayers. Type of data set: in vitro ADME. Conditions: human, pH 7.4, Caco-2 monolayer. The procedure:
Caco-2 cells (ATCC, Manassas, Va.) were kindly provided by Dr. Gunaje Jayarama (Department of Pharmaceutical Sciences, South Dakota State University, Brookings, S. Dak.) at passage #4. Cells were seeded at 1×10^6 cells onto […]®polyester filter membranes (pore size 0.4 um, growth area 4.67 cm^2) in 6 welled sterile plates ([…]®, Corning Costar Corp., Cambridge, Mass.). The cells were grown in DMEM (4.5 g/L glucose) medium supplemented with 20% FBS, 1% non-essential amino acids, I % L-glutamine, streptomycin (100 μg/ml) and penicillin (100 IU/ml). The cultures were maintained in an atmosphere of 5% CO2 and 95% air, and 95% relative humidity at 37° C. (CO2 incubator, Galaxy 170S). The growth medium was changed every day in the first two weeks followed by three times a week until time of use. When reaching confluency, cells were trypsinized and passage numbers 25-35 were used in the experiments. The cells were allowed to differentiate in the […]® filter membrane during 3 weeks in complete growth medium.
The permeability of saquinavir and saquinavir loaded ZLF nanoparticles were studied across Caco-2 cell monolayers in an absorptive direction apical to basolateral (AP-BL) or secretory direction basolateral to apical (BL-AP). Before the permeability experiments, the cell monolayers were rinsed twice with HBSS, pH 7.4, and equilibrated under experimental conditions for 20 min. Then, the apical fluid was replaced by 1.5 ml of experimental solution. Transepithelial electrical resistance (TEER) was measured using an EVOM meter (World Precision Instruments, Inc., Sarasota, Fla.) to ensure monolayer confluence and integrity. TEER was calculated as follows: […]
Where R(Ω) is the measured resistance and A is the surface area (cm^2). […] Results are expressed as apparent permeability coefficient (Papp), calculated according to: […]
Saquinavir content after extraction was analyzed in the samples using the HPLC as recited herein. […]
The ratio of effective permeability for saquinavir or efflux ratio was calculated as follows: […]

For data set [3] the following is noted: background statement; cited from earlier work.

For `CC1=C(/C=C/C(C)=C/C=C/C(C)=C/CO)C(C)(C)CCC1` [Retinol], in data set [1], the “Log P” value was 6.2 and the solubility in water entry is on record as “practically insoluble in water”.

Consider `CC(C)(C)NC(=O)[C@@H]1C[C@@H]2CCCC[C@@H]2CN1C[C@@H](O)[C@H](Cc1ccccc1)NC(=O)[C@H](CC(N)=O)NC(=O)c1ccc2ccccc2n1` [Saquinavir], for which the efflux ratio at 3 h, 20 μM in data set [2] (Papp B-A/Papp A-B) is 16.7. In addition, the Papp A→B at 3 h, 20 μM in data set [2] (apical to basolateral, free saquinavir at 20 μM) is 0.85 ± 0.21 ×10⁻⁶ cm/s. Moreover, the Papp B→A at 3 h, 20 μM in data set [2] (basolateral to apical, free saquinavir at 20 μM) stood at 14.2 ± 5.3 ×10⁻⁶ cm/s. Moreover, the bioavailability in data set [3] is listed as 0.7-4%.

As usually defined, the Log P is the decadic logarithm of the partition coefficient of the neutral form, usually between octanol and water. Usually efflux ratio stands for a quotient of directional permeabilities that is used to spot active efflux. A word on the Papp A→B: it is how fast a substance crosses the layer from the apical side. In general, Papp B→A refers to the apparent permeability from the basolateral to the apical side of a cell layer.

The values are drawn from patent US20150150822A1, “NOVEL CORE-SHELL NANOPARTICLES FOR ORAL DRUG DELIVERY” (South Dakota State University, priority 2013, published 2015).
